The results in this text go back to patent US7202242B2, “Substituted 1 and 2-naphthol Mannich bases” (Gruenenthal GmbH, priority 1999, dated 2007).

The experiment concerns phenylquinone-induced writhing. Briefly: Analgesia test in the phenylquinone-induced writhing test in mice. It counts as in vivo. The following applies: male NMRI mice; 10 mg/kg intravenous, 10 minutes before phenylquinone i.p.; writhing counted 5–20 minutes after phenylquinone. As for the experimental part:
The in-depth investigation for analgesic activity was carried out in the phenylquinone-induced writhing in mice (modified by I. C. Hendershot, J. Forsaith, J. Pharmacol. Exp. Ther. 125, 237–240 (1959)). Male NMRI mice weighing 25–30 g were used for this. Groups of 10 animals per substance dose received 0.3 ml/mouse of a 0.02% aqueous solution of phenylquinone (phenylbenzoquinone, Sigma, Deisenhofen; preparation of the solution with the addition of 5% ethanol and storage in a water bath at 45° C.) administered intraperitoneally 10 minutes after intravenous administration of the test substances. The animals were placed individually in observation cages. The number of pain-induced stretching movements (so-called writhing reactions=straightening of the body with stretching of the hind extremities) were counted by means of a push-button counter for 5–20 minutes after the administration of phenylquinone. Animals which received only physiological saline solution were also run as a control.
The substances were tested in the standard dose of 10 mg/kg. The inhibition of the writhing reactions by a substance was calculated according to the following equation: […]
The in-depth investigation for analgesic activity was carried out in the phenylquinone-induced writhing in mice as described above.
In general terms: An intraperitoneal irritant provokes the stretching counted in writhing tests.

On to `CN(C)C(c1ccccc1)c1c(OC(=O)c2ccccc2Cl)ccc2ccccc12` (stereo not drawn) [Example 40, 2-Chlorobenzoic acid 1-(dimethylaminophenylmethyl)-naphthalen-2-yl ester], for which the “Inhibition of the writhing reaction in %” value is listed as 48%.

As to `COc1ccc(COc2c(C(c3ccccc3)N(C)C)ccc3ccccc23)cc1` (stereo not drawn) [Example 37, {[1-(4-Methoxy-benzyloxy)-naphthalen-2-yl]-phenylmethyl}-dimethylamine], the “Inhibition of the writhing reaction in %” value was 40%.

For the compound `COc1ccc(C(=O)Oc2ccc3ccccc3c2C(c2ccccc2)N(C)C)cc1` (stereo not drawn) [Example 39, 4-Methoxybenzoic acid 1-(dimethylaminophenylmethyl)-naphthalen-2-yl ester], the “Inhibition of the writhing reaction in %” value was determined as 21%.

`Oc1ccc2ccccc2c1C(c1ccccc1)N1CCOCC1` (stereo not drawn) [Example 41, 1-(Morpholin-4-yl-phenylmethyl]-naphthalen-2-ol]: the “Inhibition of the writhing reaction in %” value is on record as 30%.

As for `Oc1ccc2ccccc2c1C(c1ccccc1)N1CCCCC1` (stereo not drawn) [Example 42, 1-(Phenylpiperidin-1-yl-methyl)-naphthalen-2-ol], the “Inhibition of the writhing reaction in %” value is reported as 92%.

Consider `COc1ccc(COc2ccc3ccccc3c2C(c2ccccc2)N(C)C)cc1` (stereo not drawn) [Example 38, {[2-(4-Methoxybenzyloxy)-naphthalen-1-yl]-phenylmethyl}-dimethylamine], for which the “Inhibition of the writhing reaction in %” value is recorded as 81%.
